Reference: patent US20100068181A1, “PYRROLO [3, 2-A] PYRIDINE DERIVATIVES FOR INHIBITING KSP KINESIN ACTIVITY” (Schering Corporation, priority 2006, published 2010)

Target: T1, KSP (Homo sapiens, UniProt P52732)
T1 sequence (P52732 1-1056): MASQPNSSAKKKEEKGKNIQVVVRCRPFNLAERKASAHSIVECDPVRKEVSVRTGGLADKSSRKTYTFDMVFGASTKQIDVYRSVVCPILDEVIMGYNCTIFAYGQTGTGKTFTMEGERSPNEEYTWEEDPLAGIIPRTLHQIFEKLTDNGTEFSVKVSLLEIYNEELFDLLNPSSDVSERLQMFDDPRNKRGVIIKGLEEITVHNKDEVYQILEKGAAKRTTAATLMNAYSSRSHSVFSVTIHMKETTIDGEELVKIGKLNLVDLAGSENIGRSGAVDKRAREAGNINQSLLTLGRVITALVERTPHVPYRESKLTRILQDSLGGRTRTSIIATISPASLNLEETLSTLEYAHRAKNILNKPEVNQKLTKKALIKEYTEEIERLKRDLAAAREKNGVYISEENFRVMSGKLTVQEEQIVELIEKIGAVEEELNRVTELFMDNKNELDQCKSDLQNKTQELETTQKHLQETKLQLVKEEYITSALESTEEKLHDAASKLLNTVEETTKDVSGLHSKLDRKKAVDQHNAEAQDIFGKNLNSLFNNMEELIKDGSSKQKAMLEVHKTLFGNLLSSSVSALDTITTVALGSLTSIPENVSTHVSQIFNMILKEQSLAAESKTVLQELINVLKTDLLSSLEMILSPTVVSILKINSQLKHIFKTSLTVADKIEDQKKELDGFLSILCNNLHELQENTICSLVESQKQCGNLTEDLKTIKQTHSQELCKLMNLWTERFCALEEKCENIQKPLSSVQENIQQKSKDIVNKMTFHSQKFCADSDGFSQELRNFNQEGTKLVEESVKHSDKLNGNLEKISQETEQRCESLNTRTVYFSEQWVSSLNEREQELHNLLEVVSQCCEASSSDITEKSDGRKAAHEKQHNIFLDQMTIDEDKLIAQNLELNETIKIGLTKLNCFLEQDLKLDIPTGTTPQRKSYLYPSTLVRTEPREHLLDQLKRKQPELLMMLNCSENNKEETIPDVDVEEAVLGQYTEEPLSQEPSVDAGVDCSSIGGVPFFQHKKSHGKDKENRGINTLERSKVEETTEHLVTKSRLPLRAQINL
Assay: KSP inhibitory activity, end-point assay
Format: biochemical
Details: KSP inhibitory activity based on end-point assay; read-out: IC50 Rating
Excerpt: The inhibitory activity of the present compounds towards KSP may be assayed by methods known in the art, for example, by using the methods as described in the examples.

Row | IC50 [µM] | SMILES
1 | > 10 | CC(C)(C)C1CCc2nc3c(Br)c(C(N)=O)[nH]c3cc2C1 (stereo not drawn) [Example 35]
2 | > 10 | Cc1[nH]c2cc3c(nc2c1CCO)CCC(C(C)(C)C)C3 (stereo not drawn) [Example 36]
3 | > 10 | CC(C)(C)C1CCc2nc3c(CCO)c(CO)[nH]c3cc2C1 (stereo not drawn) [Example 37]
4 | > 10 | CCOC(=O)c1[nH]c2cc3c(nc2c1/C=C/C(=O)OC)CCC(C(C)(C)C)C3 (stereo not drawn) [Example 39]
5 | 1 to 10 | CC(C)(C)C1CCc2nc3c(CCC(N)=O)c(C(N)=O)[nH]c3cc2C1 (stereo not drawn) [Example 40]
6 | 1 to 10 | CC(C)(C)C1CCc2nc3c(CCC#N)c(C#N)[nH]c3cc2C1 (stereo not drawn) [Example 41]
7 | > 10 | CCOC(=O)c1cc2nc3c(cc2n1C(C)=O)CC(C(C)(C)C)CC3 (stereo not drawn) [Example 42]
8 | > 10 | CC(C)(C)C1CCc2nc3cc(/C=N/NC(N)=S)[nH]c3cc2C1 (stereo not drawn) [Example 43]
9 | > 10 | CC(=O)NC(Cc1c(C(N)=O)[nH]c2cc3c(nc12)CCC(C(C)(C)C)C3)C(N)=O (stereo not drawn) [Example 44]
10 | > 10 | CCOC(=O)c1[nH]c2cc3c(nc2c1C)CCC(C(C)(C)C)C3 (stereo not drawn) [Example 45]
11 | > 10 | Cc1c(C(N)=O)[nH]c2cc3c(nc12)CCC(C(C)(C)C)C3 (stereo not drawn) [Example 46]
12 | > 10 | CCOC(=O)c1[nH]c2cc3c(nc2c1CC)CCC(C(C)(C)C)C3 (stereo not drawn) [Example 47]
13 | 1 to 10 | CCc1c(C(N)=O)[nH]c2cc3c(nc12)CCC(C(C)(C)C)C3 (stereo not drawn) [Example 48]
14 | > 10 | CCOC(=O)c1[nH]c2cc3c(nc2c1CCCO)CCC(C(C)(C)C)C3 (stereo not drawn) [Example 49]
15 | 0.1 to 1 | CC(C)(C)C1CCc2nc3c(CCCO)c(C(N)=O)[nH]c3cc2C1 (stereo not drawn) [Example 50]
16 | > 10 | CCOC(=O)c1[nH]c2cc3c(nc2c1CCCN)CCC(C(C)(C)C)C3 (stereo not drawn) [Example 51]
17 | > 10 | CC(C)(C)OC(=O)NCCCc1c(C(N)=O)[nH]c2cc3c(nc12)CCC(C(C)(C)C)C3 (stereo not drawn) [Example 52]
18 | > 10 | CC(C)(C)C1CCc2nc3c(CCCN)c(C(N)=O)[nH]c3cc2C1 (stereo not drawn) [Example 53]
19 | > 10 | CCOC(=O)c1[nH]c2cc3c(nc2c1CC(O)CO)CCC(C(C)(C)C)C3 (stereo not drawn) [Example 54]
20 | > 10 | CC(C)(C)C1CCc2nc3c(CC(O)CO)c(C(N)=O)[nH]c3cc2C1 (stereo not drawn) [Example 55]
21 | > 10 | CC(C)(C)C1CCc2nc3c(C#CCCO)c(C(N)=O)[nH]c3cc2C1 (stereo not drawn) [Example 56]
22 | 0.1 to 1 | CC(C)(C)C1CCc2nc3c(CCCCO)c(C(N)=O)[nH]c3cc2C1 (stereo not drawn) [Example 57]
23 | > 10 | CC(C)(C)C1CCc2nc3c(C#CCCCO)c(C(N)=O)[nH]c3cc2C1 (stereo not drawn) [Example 58]
24 | 1 to 10 | CC(C)(C)C1CCc2nc3c(CCCCCO)c(C(N)=O)[nH]c3cc2C1 (stereo not drawn) [Example 59]
25 | 0.1 to 1 | CCc1c(C(=O)NCCN)[nH]c2cc3c(nc12)CCC(C(C)(C)C)C3 (stereo not drawn) [Example 60]

Row | IC50 [µM] | SMILES
26 | > 10 | CCOC(=O)c1[nH]c2cc3c(nc2c1NC(=O)COC(C)=O)CCC(C(C)(C)C)C3 (stereo not drawn) [Example 62]
27 | 1 to 10 | CC(C)(C)C1CCc2nc3c(NC(=O)CO)c(C(N)=O)[nH]c3cc2C1 (stereo not drawn) [Example 63]
28 | > 10 | CCOC(=O)c1[nH]c2cc3c(nc2c1NCCOC)CCC(C(C)(C)C)C3 (stereo not drawn) [Example 64]
29 | > 10 | CCOC(=O)c1[nH]c2cc3c(nc2c1NCCO)CCC(C(C)(C)C)C3 (stereo not drawn) [Example 65]
30 | 1 to 10 | CC(C)(C)C1CCc2nc3c(NCCO)c(C(N)=O)[nH]c3cc2C1 (stereo not drawn) [Example 66]
31 | > 10 | CCOC(=O)c1[nH]c2cc3c(nc2c1NCCCO)CCC(C(C)(C)C)C3 (stereo not drawn) [Example 67]
32 | 1 to 10 | CC(C)(C)C1CCc2nc3c(NS(C)(=O)=O)c(C(N)=O)[nH]c3cc2C1 (stereo not drawn) [Example 68]
33 | > 10 | CCOC(=O)c1c(Cl)[nH]c2cc3c(nc12)CCC(C(C)(C)C)C3 (stereo not drawn) [Example 69]
34 | > 10 | CCOC(=O)c1c[nH]c2cc3c(nc12)CCC(C(C)(C)C)C3 (stereo not drawn) [Example 70]
35 | > 10 | COC(=O)c1c[nH]c2cc3c(nc12)CCC(C(C)(C)C)C3 (stereo not drawn) [Example 71]
36 | 1 to 10 | CC(C)(C)C1CCc2nc3c(C(=O)NCCO)c[nH]c3cc2C1 (stereo not drawn) [Example 72]
37 | > 10 | CC(C)(C)C1CCc2nc3c(C(=O)NCCN)c[nH]c3cc2C1 (stereo not drawn) [Example 73]
38 | > 10 | CC(C)(C)C1CCc2nc3c(C(=O)NCCN4CCNCC4)c[nH]c3cc2C1 (stereo not drawn) [Example 74]
39 | > 10 | CC(C)(C)C1CCc2nc3c(C(=O)NCc4cccnc4)c[nH]c3cc2C1 (stereo not drawn) [Example 75]
40 | > 10 | C[C@@H](CO)NC(=O)c1c[nH]c2cc3c(nc12)CCC(C(C)(C)C)C3 (stereo partly drawn) [Example 76]
41 | > 10 | C[C@H](CO)NC(=O)c1c[nH]c2cc3c(nc12)CCC(C(C)(C)C)C3 (stereo partly drawn) [Example 77]
42 | > 10 | C=CCNC(=O)c1c[nH]c2cc3c(nc12)CCC(C(C)(C)C)C3 (stereo not drawn) [Example 78]
43 | 0.1 to 1 | CC(C)(C)C1CCc2nc3c(C(=O)NN)c[nH]c3cc2C1 (stereo not drawn) [Example 79]
44 | 1 to 10 | CC(C)(C)C1CCc2nc3c(C(=O)NCCCO)c[nH]c3cc2C1 (stereo not drawn) [Example 80]
45 | 0.1 to 1 | CC(C)(C)C1CCc2nc3c(C(N)=O)c[nH]c3cc2C1 (stereo not drawn) [Example 82]
46 | < 0.1 | CC(C)(C)C1CCc2nc3cc[nH]c3cc2C1 (stereo not drawn) [Example 83]
47 | 1 to 10 | CC(=O)Nc1c[nH]c2cc3c(nc12)CCC(C(C)(C)C)C3 (stereo not drawn) [Example 84]
48 | > 10 | CC(C)(C)C1CCc2nc3c(CC(N)=O)c(O)[nH]c3cc2C1 (stereo not drawn) [Example 85]
49 | 0.1 to 1 | COCCOCc1cc2nc3c(cc2[nH]1)CC(C(C)(C)C)CC3 (stereo not drawn) [Example 86]
50 | 0.1 to 1 | COCc1cc2nc3c(cc2[nH]1)CC(C(C)(C)C)CC3 (stereo not drawn) [Example 87]

Row | IC50 [µM] | SMILES
51 | 0.1 to 1 | CCOCc1cc2nc3c(cc2[nH]1)CC(C(C)(C)C)CC3 (stereo not drawn) [Example 88]
52 | > 10 | CC(C)OCc1cc2nc3c(cc2[nH]1)CC(C(C)(C)C)CC3 (stereo not drawn) [Example 89]
53 | > 10 | CC(C)(C)C1CCc2nc3cc(C(=O)NCc4ccc5c(c4)OCO5)[nH]c3cc2C1 (stereo not drawn) [Example 90]
54 | > 10 | CC(C)(C)C1CCc2nc3cc(C(=O)NCc4ccccn4)[nH]c3cc2C1 (stereo not drawn) [Example 91]
55 | 1 to 10 | CC(C)(C)C1CCc2nc3cc(C(=O)NCCN4CCNCC4)[nH]c3cc2C1 (stereo not drawn) [Example 92]
56 | > 10 | Cc1cc(C)n(C(=O)c2c[nH]c3cc4c(nc23)CCC(C(C)(C)C)C4)n1 (stereo not drawn) [Example 93]
57 | > 10 | CC(C)(C)C1CCc2nc3c(C(=O)Nc4ncccn4)c[nH]c3cc2C1 (stereo not drawn) [Example 94]
58 | > 10 | CC(C)(C)C1CCc2nc3cc(C(=O)NNc4ccccc4)[nH]c3cc2C1 (stereo not drawn) [Example 95]
59 | 0.1 to 1 | CC(C)(C)C1CCc2nc3cc(C(=O)Nc4nnn[nH]4)[nH]c3cc2C1 (stereo not drawn) [Example 96]
60 | 0.1 to 1 | CC(C)(C)C1CCc2nc3cc(C(=O)Nc4ccncc4)[nH]c3cc2C1 (stereo not drawn) [Example 97]
61 | > 10 | CCOC(=O)c1cc(NC(=O)c2cc3nc4c(cc3[nH]2)CC(C(C)(C)C)CC4)c[nH]1 (stereo not drawn) [Example 98]
62 | > 10 | CC(C)(C)C1CCc2nc3cc(C(=O)NNCCC#N)[nH]c3cc2C1 (stereo not drawn) [Example 99]
63 | > 10 | CNNC(=O)c1cc2nc3c(cc2[nH]1)CC(C(C)(C)C)CC3 (stereo not drawn) [Example 100]
64 | 0.1 to 1 | CC(C)(C)C1CCc2nc3cc(C(=O)NNc4ccccn4)[nH]c3cc2C1 (stereo not drawn) [Example 101]
65 | 0.1 to 1 | CC(C)(C)C1CCc2nc3cc(C(=O)Nc4ccc(O)cc4)[nH]c3cc2C1 (stereo not drawn) [Example 102]
66 | 0.1 to 1 | CC(C)(C)[C@@H]1CCc2nc3cc(C(=O)Nc4ccc(O)cc4)[nH]c3cc2C1 [Example 103A]
67 | > 10 | CC(C)(C)[C@H]1CCc2nc3cc(C(=O)Nc4ccc(O)cc4)[nH]c3cc2C1 [Example 103B]
68 | 0.1 to 1 | CC(C)(C)C1CCc2nc3cc(C(=O)Nc4ccc(N)nc4)[nH]c3cc2C1 (stereo not drawn) [Example 104]
69 | 1 to 10 | CC(C)(C)C1CCc2nc3cc(C(=O)Nc4ccc(CCO)cc4)[nH]c3cc2C1 (stereo not drawn) [Example 105]
70 | 0.1 to 1 | CC(C)(C)C1CCc2nc3cc(C(=O)N[C@H](CO)c4ccccc4)[nH]c3cc2C1 (stereo partly drawn) [Example 106]
71 | > 10 | CC(C)(C)C1CCc2nc3cc(C(=O)N[C@@H](CO)c4ccccc4)[nH]c3cc2C1 (stereo partly drawn) [Example 107]
72 | > 10 | CC(C)(C)C1CCc2nc3cc(C(=O)N[C@H](CO)Cc4ccccc4)[nH]c3cc2C1 (stereo partly drawn) [Example 108]
73 | > 10 | CC(C)(C)C1CCc2nc3cc(C(O)c4ccccc4)[nH]c3cc2C1 (stereo not drawn) [Example 109]
74 | > 10 | COc1cccc(C(O)c2cc3nc4c(cc3[nH]2)CC(C(C)(C)C)CC4)c1 (stereo not drawn) [Example 110]
75 | > 10 | COc1ccc(C(O)c2cc3nc4c(cc3[nH]2)CC(C(C)(C)C)CC4)cc1 (stereo not drawn) [Example 111]
